According to patent US10072026B2, “Crystalline form of 3-((1R,3s,5S)-3-((7-((5-methyl-1H-pyrazol-3-yl)amino)-1,6-naphthyridin-5-yl)amino)-8-azabicyclo[3.2.1]octan-8-yl)propanenitrile” (priority 2015, dated 2018):
Like-named read-outs stand apart in the source and are kept apart here.

Columns and labels:
JAK1 = JAK1 (Homo sapiens (Human), UniProt P23458); assay: LanthaScreen JAK biochemical assay (JAK1)
[1] = tested on: IL-4 induced STAT6 phosphorylation in THP-1 human monocytic cells; assay: Cellular JAK potency assay, THP-1
JAK2 = JAK2 (Homo sapiens (Human), UniProt O60674); assay: LanthaScreen JAK biochemical assay (JAK2)
JAK2, sequence (O60674 whole entry): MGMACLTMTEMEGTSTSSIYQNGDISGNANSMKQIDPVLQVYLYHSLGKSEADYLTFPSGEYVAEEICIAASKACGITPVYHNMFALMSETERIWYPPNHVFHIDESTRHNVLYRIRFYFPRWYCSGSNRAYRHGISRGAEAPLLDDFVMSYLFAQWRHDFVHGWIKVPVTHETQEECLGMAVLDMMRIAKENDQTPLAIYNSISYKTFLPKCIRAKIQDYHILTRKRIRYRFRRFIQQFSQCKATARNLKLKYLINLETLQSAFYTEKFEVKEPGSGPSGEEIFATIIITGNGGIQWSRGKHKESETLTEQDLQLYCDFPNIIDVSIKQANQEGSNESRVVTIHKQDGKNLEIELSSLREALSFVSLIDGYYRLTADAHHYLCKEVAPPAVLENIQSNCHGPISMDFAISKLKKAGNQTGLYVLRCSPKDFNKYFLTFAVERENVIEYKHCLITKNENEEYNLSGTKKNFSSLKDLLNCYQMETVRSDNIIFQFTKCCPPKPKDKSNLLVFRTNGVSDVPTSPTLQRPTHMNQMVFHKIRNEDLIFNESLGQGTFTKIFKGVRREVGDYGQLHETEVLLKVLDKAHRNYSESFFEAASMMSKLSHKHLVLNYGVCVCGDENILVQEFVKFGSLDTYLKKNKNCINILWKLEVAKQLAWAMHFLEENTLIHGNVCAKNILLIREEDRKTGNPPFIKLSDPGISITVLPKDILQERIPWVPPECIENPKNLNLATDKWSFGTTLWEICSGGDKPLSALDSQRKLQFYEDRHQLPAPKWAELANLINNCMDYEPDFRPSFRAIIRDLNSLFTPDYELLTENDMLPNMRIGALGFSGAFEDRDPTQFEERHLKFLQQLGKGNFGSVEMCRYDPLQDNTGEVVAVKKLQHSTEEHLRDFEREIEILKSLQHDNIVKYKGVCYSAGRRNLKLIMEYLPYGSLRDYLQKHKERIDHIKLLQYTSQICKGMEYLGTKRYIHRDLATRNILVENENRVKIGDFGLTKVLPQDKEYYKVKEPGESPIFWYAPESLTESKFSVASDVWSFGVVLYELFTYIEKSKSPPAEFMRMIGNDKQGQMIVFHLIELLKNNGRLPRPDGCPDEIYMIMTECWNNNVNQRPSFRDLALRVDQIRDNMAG

[2] = IL-4 induced STAT6 phosphorylation, THP-1 cells
[3] = Homo sapiens, THP-1, read-out: THP-1 IL4 pIC50 (converted)
[4] = read-out: JAK 2 (pKi) (converted)
[5] = read-out: JAK 1 (pKi) (converted)
[6] = THP-1 cells, IL-4 induced STAT6 phosphorylation

JAK1, sequence (P23458 whole entry): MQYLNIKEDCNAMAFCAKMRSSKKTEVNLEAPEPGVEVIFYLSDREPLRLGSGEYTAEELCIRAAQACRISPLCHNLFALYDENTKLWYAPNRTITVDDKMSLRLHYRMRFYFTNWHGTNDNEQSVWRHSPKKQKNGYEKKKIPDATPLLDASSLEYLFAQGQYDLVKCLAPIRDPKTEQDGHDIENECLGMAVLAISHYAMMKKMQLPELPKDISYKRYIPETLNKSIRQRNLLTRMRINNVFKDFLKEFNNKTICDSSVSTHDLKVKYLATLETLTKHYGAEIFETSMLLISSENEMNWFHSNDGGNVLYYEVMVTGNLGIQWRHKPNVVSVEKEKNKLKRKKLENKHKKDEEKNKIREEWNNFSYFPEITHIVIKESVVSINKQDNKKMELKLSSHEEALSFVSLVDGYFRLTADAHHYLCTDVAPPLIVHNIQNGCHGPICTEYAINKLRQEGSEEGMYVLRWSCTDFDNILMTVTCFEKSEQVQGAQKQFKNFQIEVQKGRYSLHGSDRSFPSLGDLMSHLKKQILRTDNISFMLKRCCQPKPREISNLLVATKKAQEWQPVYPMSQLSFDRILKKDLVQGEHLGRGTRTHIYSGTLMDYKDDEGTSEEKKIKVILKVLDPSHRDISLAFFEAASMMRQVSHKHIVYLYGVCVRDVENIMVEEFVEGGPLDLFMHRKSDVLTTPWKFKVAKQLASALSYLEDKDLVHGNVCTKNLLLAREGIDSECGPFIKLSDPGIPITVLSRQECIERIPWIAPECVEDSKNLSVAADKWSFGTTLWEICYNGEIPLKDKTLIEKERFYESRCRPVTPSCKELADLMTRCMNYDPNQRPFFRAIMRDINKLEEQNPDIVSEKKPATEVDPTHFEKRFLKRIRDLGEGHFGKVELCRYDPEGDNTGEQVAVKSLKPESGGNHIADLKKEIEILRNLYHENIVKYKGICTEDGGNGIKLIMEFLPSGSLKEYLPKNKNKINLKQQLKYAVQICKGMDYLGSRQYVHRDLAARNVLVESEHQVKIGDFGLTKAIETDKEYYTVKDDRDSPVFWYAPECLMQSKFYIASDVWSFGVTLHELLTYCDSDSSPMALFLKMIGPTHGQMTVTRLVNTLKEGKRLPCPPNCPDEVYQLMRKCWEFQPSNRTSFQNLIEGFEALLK

Structure (SMILES)	JAK 1 (pKi) (JAK1)	THP-1 IL4 pIC50 [1, 2]	JAK 2 (pKi) (JAK2)	other results
Cc1cc(Nc2cc3ncccc3c(N[C@@H]3C[C@H]4CC[C@@H](C3)N4CC3CCOCC3)n2)n[nH]1 [Example 1-20]	B (B represents a pKi value between 9 and 10 (Ki between 1 nM and 0.1 nM))	B (B represents a pEC50 value between 6.7 and 7.5 (EC50 between 200 nM and 32 nM))	B (B represents a pKi value between 9 and 10 (Ki between 1 nM and 0.1 nM))	
Cc1cc(Nc2cc3ncc(S(C)(=O)=O)cc3c(N[C@@H]3C[C@H]4CC[C@@H](C3)N4C(=O)C(F)F)n2)n[nH]1 [Example 6-52]				Ki (JAK1): 0.1 to 1 nM; IC50 [1, 3]: > 200 nM; Ki (JAK2; [4]): 0.1 to 1 nM
Cc1cc(Nc2cc3ncccc3c(N[C@@H]3C[C@H]4CC[C@@H](C3)N4CCC(F)(F)F)n2)n[nH]1 [Example 1-10]	B (B represents a pKi value between 9 and 10 (Ki between 1 nM and 0.1 nM))	C (C represents a pEC50 value<6.7 (EC50>200 nM))	B (B represents a pKi value between 9 and 10 (Ki between 1 nM and 0.1 nM))	
Cc1cc(Nc2cc3nc(CN4CCOCC4)ccc3c(N[C@@H]3C[C@H]4CC[C@@H](C3)N4CCC#N)n2)n[nH]1 [Example 5-18]		B (B represents a pEC50 value between 6.7 and 7.5 (EC50 between 200 nM and 32 nM))	A (A represents a pKi value≥10 (Ki≤0.1 nM))	
Cc1cc(Nc2cc3ncccc3c(N[C@@H]3C[C@H]4CCC[C@@H](C3)N4CC3COC(=O)O3)n2)n[nH]1 (stereo partly drawn) [Example 1-58]		B (B represents a pEC50 value between 6.7 and 7.5 (EC50 between 200 nM and 32 nM))	A (A represents a pKi value≥10 (Ki≤0.1 nM))	
COC(=O)c1cnc2cc(Nc3cc(C)[nH]n3)nc(N[C@@H]3C[C@H]4CC[C@@H](C3)N4C(=O)C(F)F)c2c1 [Example 6-37]				Ki (JAK1; [5]): 0.1 to 1 nM; Ki (JAK2; [4]): 0.1 to 1 nM
Cc1cc(Nc2cc3ncccc3c(N[C@@H]3C[C@H]4CC[C@@H](C3)N4C3CCOC3=O)n2)n[nH]1 (stereo partly drawn) [Example 1-26]				Ki (JAK1; [5]): 0.1 to 1 nM; Ki (JAK2; [4]): 0.1 to 1 nM
Cc1cc(Nc2cc3nc(CN4CCOCC4)ccc3c(N[C@@H]3C[C@H]4CCC[C@@H](C3)N4CC(F)(F)F)n2)n[nH]1 [Example 5-29]		B (B represents a pEC50 value between 6.7 and 7.5 (EC50 between 200 nM and 32 nM))	A (A represents a pKi value≥10 (Ki≤0.1 nM))	
Cc1cc(Nc2cc3ncccc3c(N[C@@H]3C[C@H]4CC[C@@H](C3)N4C(=O)OC(C)C)n2)n[nH]1 [Example 3-2]				Ki (JAK1): 0.1 to 1 nM; IC50 [1, 3]: < 31.6 nM; Ki (JAK2): 0.1 to 1 nM
COC(=O)C1(C(=O)N2[C@@H]3CCC[C@H]2C[C@H](Nc2nc(Nc4cc(C)[nH]n4)cc4ncccc24)C3)CC1 [Example 2-21]		B (B represents a pEC50 value between 6.7 and 7.5 (EC50 between 200 nM and 32 nM))	B (B represents a pKi value between 9 and 10 (Ki between 1 nM and 0.1 nM))	
Cc1cc(Nc2cc3ncccc3c(N[C@@H]3C[C@H]4CC[C@@H](C3)N4Cc3cccnc3)n2)n[nH]1 [Example 1-16]	B (B represents a pKi value between 9 and 10 (Ki between 1 nM and 0.1 nM))	B (B represents a pEC50 value between 6.7 and 7.5 (EC50 between 200 nM and 32 nM))	B (B represents a pKi value between 9 and 10 (Ki between 1 nM and 0.1 nM))	
Cc1cc(Nc2cc3ncccc3c(N[C@@H]3C[C@H]4CCC[C@@H](C3)N4Cc3ccncc3)n2)n[nH]1 [Example 1-48]	A (A represents a pKi value≥10 (Ki≤0.1 nM))	B (B represents a pEC50 value between 6.7 and 7.5 (EC50 between 200 nM and 32 nM))	A (A represents a pKi value≥10 (Ki≤0.1 nM))	
Cc1cc(Nc2cc3ncc(S(C)(=O)=O)cc3c(N[C@@H]3C[C@H]4CC[C@@H](C3)N4CCC#N)n2)n[nH]1 [Example 6-50]	A (A represents a pKi value≥10 (Ki≤0.1 nM))		A (A represents a pKi value≥10 (Ki≤0.1 nM))	THP-1 IL4 pIC50 [1, 6]: C (C represents a pEC50 value<6.7 (EC50>200 nM))
CCS(=O)(=O)N1[C@@H]2CC[C@H]1C[C@H](Nc1nc(Nc3cc(C)[nH]n3)c(F)c3ncccc13)C2 [Example 8-3]	B (B represents a pKi value between 9 and 10 (Ki between 1 nM and 0.1 nM))		B (B represents a pKi value between 9 and 10 (Ki between 1 nM and 0.1 nM))	THP-1 IL4 pIC50 [1, 6]: A (A represents a pEC50 value≥7.5 (EC50≤32 nM))
Cc1cc(Nc2cc3ncccc3c(N[C@@H]3C[C@H]4CCC[C@@H](C3)N4C(=O)C3(C)CCCC3)n2)n[nH]1 [Example 2-23]		B (B represents a pEC50 value between 6.7 and 7.5 (EC50 between 200 nM and 32 nM))	B (B represents a pKi value between 9 and 10 (Ki between 1 nM and 0.1 nM))	
CNC(=O)CN1[C@@H]2CC[C@H]1C[C@H](Nc1nc(Nc3cc(C)[nH]n3)cc3ncccc13)C2 [Example 1-7]	B (B represents a pKi value between 9 and 10 (Ki between 1 nM and 0.1 nM))	C (C represents a pEC50 value<6.7 (EC50>200 nM))	B (B represents a pKi value between 9 and 10 (Ki between 1 nM and 0.1 nM))	

Structure (SMILES)	JAK 1 (pKi) (JAK1)	THP-1 IL4 pIC50 [1, 2]	JAK 2 (pKi) (JAK2)	other results
Cc1cc(Nc2cc3ncccc3c(N[C@@H]3C[C@H]4CC[C@@H](C3)N4S(=O)(=O)C3CCCC3)n2)n[nH]1 [Example 4-5]				Ki (JAK1; [5]): 0.1 to 1 nM; IC50 [1, 3]: < 31.6 nM; Ki (JAK2): 0.1 to 1 nM
COC(=O)c1cnc2cc(Nc3cc(C)[nH]n3)nc(N[C@@H]3C[C@H]4CC[C@@H](C3)N4C[C@H]3CCC(=O)O3)c2c1 [Example 6-46]	B (B represents a pKi value between 9 and 10 (Ki between 1 nM and 0.1 nM))		B (B represents a pKi value between 9 and 10 (Ki between 1 nM and 0.1 nM))	THP-1 IL4 pIC50 [1, 6]: C (C represents a pEC50 value<6.7 (EC50>200 nM))
C=CCOC(=O)N1[C@@H]2CC[C@H]1C[C@H](Nc1nc(Nc3cc(C)[nH]n3)cc3ncccc13)C2 [Example 3-4]	B (B represents a pKi value between 9 and 10 (Ki between 1 nM and 0.1 nM))	A (A represents a pEC50 value≥7.5 (EC50≤32 nM))	B (B represents a pKi value between 9 and 10 (Ki between 1 nM and 0.1 nM))	
COCCOC(=O)N1[C@@H]2CCC[C@H]1C[C@H](Nc1nc(Nc3cc(C)[nH]n3)cc3ncccc13)C2 [Example 3-9]	B (B represents a pKi value between 9 and 10 (Ki between 1 nM and 0.1 nM))	A (A represents a pEC50 value≥7.5 (EC50≤32 nM))	B (B represents a pKi value between 9 and 10 (Ki between 1 nM and 0.1 nM))	
Cc1cc(Nc2cc3ncccc3c(N[C@@H]3C[C@H]4CC[C@@H](C3)N4CC(=O)OC(C)(C)C)n2)n[nH]1 [Example 1-5]	B (B represents a pKi value between 9 and 10 (Ki between 1 nM and 0.1 nM))	B (B represents a pEC50 value between 6.7 and 7.5 (EC50 between 200 nM and 32 nM))	B (B represents a pKi value between 9 and 10 (Ki between 1 nM and 0.1 nM))	
Cc1cc(Nc2cc3ncccc3c(N[C@@H]3C[C@H]4CCC[C@@H](C3)N4CC(=O)OC(C)(C)C)n2)n[nH]1 [Example 1-36]	B (B represents a pKi value between 9 and 10 (Ki between 1 nM and 0.1 nM))	B (B represents a pEC50 value between 6.7 and 7.5 (EC50 between 200 nM and 32 nM))	B (B represents a pKi value between 9 and 10 (Ki between 1 nM and 0.1 nM))	
C=CCOC(=O)N1[C@@H]2CCC[C@H]1C[C@H](Nc1nc(Nc3cc(C)[nH]n3)cc3ncccc13)C2 [Example 3-8]	B (B represents a pKi value between 9 and 10 (Ki between 1 nM and 0.1 nM))	A (A represents a pEC50 value≥7.5 (EC50≤32 nM))	B (B represents a pKi value between 9 and 10 (Ki between 1 nM and 0.1 nM))	
Cc1cc(Nc2cc3ncccc3c(N[C@@H]3C[C@H]4CCC[C@@H](C3)N4S(=O)(=O)Cc3ccccc3)n2)n[nH]1 [Example 4-24]	B (B represents a pKi value between 9 and 10 (Ki between 1 nM and 0.1 nM))	B (B represents a pEC50 value between 6.7 and 7.5 (EC50 between 200 nM and 32 nM))	B (B represents a pKi value between 9 and 10 (Ki between 1 nM and 0.1 nM))	
Cc1cc(Nc2cc3ncccc3c(N[C@@H]3C[C@H]4CC[C@@H](C3)N4C(=O)C3(C)CCCC3)n2)n[nH]1 [Example 2-10]				Ki (JAK1): 0.1 to 1 nM; IC50 [1, 3]: 31.6 to 200 nM; Ki (JAK2; [4]): 0.1 to 1 nM
Cc1cc(Nc2cc3nc(CN4CCC(F)(F)CC4)ccc3c(N[C@@H]3C[C@H]4CC[C@@H](C3)N4S(=O)(=O)c3cncc(F)c3)n2)n[nH]1 [Example 5-31]				Ki (JAK1): 0.1 to 1 nM; IC50 [1, 3]: 31.6 to 200 nM; Ki (JAK2; [4]): 0.1 to 1 nM
Cc1cc(Nc2cc3nc(CS(C)(=O)=O)ccc3c(N[C@@H]3C[C@H]4CC[C@@H](C3)N4CCCF)n2)n[nH]1 [Example 5-42]	B (B represents a pKi value between 9 and 10 (Ki between 1 nM and 0.1 nM))	C (C represents a pEC50 value<6.7 (EC50>200 nM))	B (B represents a pKi value between 9 and 10 (Ki between 1 nM and 0.1 nM))	
Cc1cc(Nc2cc3ncccc3c(N[C@@H]3C[C@H]4CC[C@@H](C3)N4S(=O)(=O)N3CCC3)n2)n[nH]1 [Example 4-6]				Ki (JAK1; [5]): 0.1 to 1 nM; IC50 [1, 3]: < 31.6 nM; Ki (JAK2): 0.1 to 1 nM
Cc1cc(Nc2cc3ncccc3c(N[C@@H]3C[C@H]4CCC[C@@H](C3)N4C3CCCOC3=O)n2)n[nH]1 (stereo partly drawn) [Example 1-53]	B (B represents a pKi value between 9 and 10 (Ki between 1 nM and 0.1 nM))	B (B represents a pEC50 value between 6.7 and 7.5 (EC50 between 200 nM and 32 nM))	B (B represents a pKi value between 9 and 10 (Ki between 1 nM and 0.1 nM))	
Cc1cc(Nc2cc3ncccc3c(N[C@@H]3C[C@H]4CC[C@@H](C3)N4C3CCOC3=O)n2)n[nH]1 (stereo partly drawn) [Example 1-27]	B (B represents a pKi value between 9 and 10 (Ki between 1 nM and 0.1 nM))		B (B represents a pKi value between 9 and 10 (Ki between 1 nM and 0.1 nM))	
Cc1cnc2cc(Nc3cc(C)[nH]n3)nc(N[C@@H]3C[C@H]4CCC[C@@H](C3)N4C(=O)OCC(C)C)c2c1 [Example 6-7]			B (B represents a pKi value between 9 and 10 (Ki between 1 nM and 0.1 nM))	THP-1 IL4 pIC50 [1, 6]: B (B represents a pEC50 value between 6.7 and 7.5 (EC50 between 200 nM and 32 nM))
